In US20220205982A1 (CHILDREN'S HOSPITAL MEDICAL CENTER, priority 2019, published 2022):
Values joined by “and” are separate entries in the source; they are usually repeats but may differ in a detail not shown here. Equal entries are not always repeated.

Key:
[1] = Melphalan test dose and full dose pharmacokinetics in patients undergoing RIC allogeneic HCT for non-malignant disorders (Bayesian analysis of plasma concentrations); type: in vivo, human; conditions: for Test dose PK predicted full close AUC / Full dose CL / Test dose CL: median; for Distribution of AUC (h * μg/mL): 3.5-≤6.5 / Distribution of AUC (h * μg/mL): <3.5 / Distribution of AUC (h * μg/mL): >6.5: share of transplants
Description: (§1) Patients undergoing allogeneic HCT for non-malignant disorders with a uniform RIC regimen that included alemtuzumab, fludarabine and melphalan were enrolled in this study. Full standard dose of melphalan was set as follows: • 140 mg/m^2 in patients having a body weight >10 kg, • 4.7 mg/kg in patients having a body weight <10 kg, and • 70 mg/m^2 in one patient with a radio sensitivity disorder.
The patients were given a test dose of melphalan (10% of the standard full dose) prior to start of their preparative regimen. Test dose of 10% of the full standard dose was determined to be the lowest dose level that would be measurable for a sufficiently long time interval (0-4h) to allow reliable AUC estimation. Accordingly, the test doses used in this study were 14 mg/m^2, 7 mg/m^2 and 0.47 mg/kg for patients having the standard full doses of 140 mg/m^2, 70 mg/m^2 and 4.7 mg/kg, respectively.
(§2) Blood samples were obtained for PK measurement after the administration of test dose and the full standard dose of melphalan. A total of 10 blood samples were obtained around each dose of melphalan: at baseline (5-10 min prior to start of the melphalan infusion of) and then approximately at 5 min, 15 min, 30 min, 45 min, 60 min, 2 hour, 2.5, 4, and 6 hours after the end of the melphalan infusion. Samples were collected on ice and transported to the institution's mass spectrometry laboratory for instant analysis by PS-MS/MS and conventional LC-MS/MS. Patient data collected for analysis included baseline organ function, presence of oral and gastrointestinal mucositis, renal and liver dysfunction including VOD, initial donor chimerism, graft rejection, and acute and chronic GVHD (aGVHD and cGVHD). The Common Terminology Criteria for Adverse Events (CTCAE) version 4.0 was used to evaluate adverse events. Acute and chronic GVHD were assessed by standardized published criteria. See, e.g., Glucksberg H, et al. Transplantation. 1974; 18:295-304 and Filipovich A H, et al. Biol Blood Marrow Transplant. 2005; 11:945-956. Interim analyses were completed after enrollment of 5 patients and 10 patients respectively to validate data following 25% and 50% of intended total patient enrollment. The AUC range that led to full donor chimerism without excess toxicity in majority of patients was selected to be the desired target AUC for full dose adjustment. In patients with baseline impaired organ function, personalized full dose melphalan was adjusted to limit toxicity if test dose PK predicted standard full dose AUC was higher than the desired target AUC range.
Melphalan levels were measured by validated PS-MS/MS and LC-MS\MS methods (Mirkou A, etc., J Chromatogr B Analyt Technol Biomed Life Sci. 2009; 877:3089-3096). For the PS-MS/MS method, all samples were analyzed using an automated Paper Spray ion source (Prosolia, Inc. Indianapolis, Ind.) interfaced with a TSQ Quantum Ultra mass spectrometer (Thermo Scientific, San Jose, Calif.) operated in selected reaction monitoring (SRM) mode. XCalibur software was used to control the MS and to process data. Specific precursor/product ions were simultaneously monitored for melphalan and its stable isotopically-labelled internal standard (D8-melphalan) by collision-induced dissociation (CID). Blood samples were prepared by spiking known amounts of melphalan standards and the internal standard into drug free human blood to establish a calibration curve and quality control samples. A small amount of patient's blood […] equilibrated with D8-melphalan solution was deposited on the Paper Spray cartridge and dried. A small volume of solvent optimized to efficiently extract the drug was applied to the paper. A stepwise high voltage (3-5 kV) was then applied inducing an electrospray ionization at the tip of the paper; the solvent evaporates from the droplets generating gas phase ions of the analyte, which then can be detected by a mass spectrometer. […]

[2] = Clinical outcome and toxicity after melphalan full dose in RIC allogeneic HCT (engraftment, chimerism, mucositis, VOD, GVHD); type: in vivo, human
Description: as §1, §2

[3] = median and range, six patients (7 transplants) with impaired organ function, adjusted full dose
[4] = PK-adjusted full dose, N = 6 (7)
[5] = five patients, adjusted full dose
[6] = sixth patient, initial HCT, full dose 0.44 mg/kg
[7] = sixth patient, second HCT, full dose 1.2 mg/kg

## N[C@@H](Cc1ccc(N(CCCl)CCCl)cc1)C(=O)O [melphalan, 4-[Bis(2-chloroethyl)amino]-L-phenylalanine]
[1]; median and range, patients >10 kg, standard dose 140 mg/m2, n=11
  full dose AUC: 4.1 to 9.5 µg·h/mL
[1]; median and range, six patients (7 transplants) with impaired organ function
  test dose PK predicted AUC for standard full dose: 13.8 µg·h/mL and 11.1 to 16.4 µg·h/mL
[1]; [3]
  test dose AUC: 0.7 to 1.45 µg·h/mL
  test dose clearance: 18.5 L/hr./70 kg and 11.3-35.9 L/hr./70 kg
[1]; PK-adjusted full dose
  Test dose PK predicted full close AUC: 13.8 µg·h/mL
  Distribution of AUC (h * μg/mL): 3.5-≤6.5: 85.7%
  Distribution of AUC (h * μg/mL): <3.5: 14.3%
  Distribution of AUC (h * μg/mL): >6.5: 0.0%
[1]; [4]
  Full dose CL: 18.8 L/h/70 kg
  Test dose CL: 45.2 L/h/70 kg
[1]; Standard full dose
  Test dose PK predicted full close AUC: 5.7 µg·h/mL
  Distribution of AUC (h * μg/mL): 3.5-≤6.5: 70.6%
  Distribution of AUC (h * μg/mL): <3.5: 5.9%
  Distribution of AUC (h * μg/mL): >6.5: 23.5%
[1]; Standard full dose, N = 16 (16)
  Test dose CL: 18.5 L/h/70 kg
[1]; Standard full dose, N = 17 (17)
  Full dose CL: 38.3 L/h/70 kg
[1]; Total
  Test dose PK predicted full close AUC: 5.9 µg·h/mL
  Distribution of AUC (h * μg/mL): 3.5-≤6.5: 75.0%
  Distribution of AUC (h * μg/mL): <3.5: 8.3%
  Distribution of AUC (h * μg/mL): >6.5: 16.7%
[1]; Total, N = 22 (23)
  Test dose CL: 33.9 L/h/70 kg
[1]; Total, N = 23 (24)
  Full dose CL: 37.4 L/h/70 kg
[1]; patients with impaired organ function, predicted from test dose PK
  full dose AUC if given standard full dose: 11.0 ± 3.6 µg·h/mL
[2]; [5]
  donor chimerism at engraftment: ≥ 99%
  patients who developed VOD: None
  patients with grade 3 mucositis: all 5
[2]; four patients
  patients who developed GVHD: 15%
[2]; human, in vivo
  patients who developed grade 1 acute GVHD of skin: Two
  patients who developed limited chronic GVHD: two
[2]; [6]
  VOD of the liver or other excessive toxicity: did not develop VOD of the liver or other excessive toxicity
  graft outcome: developed secondary graft failure
  whole blood donor chimerism: 79%
[2]; [7]
  VOD of the liver or other excessive toxicity: without developing VOD of the liver or other excessive toxicity
  donor chimerism: 100%
[2]; standard dose melphalan
  patients who developed VOD of the liver: Two
  patients who developed grade 1 mucositis: one
  patients who developed grade 2 mucositis: 5 patients
  patients who developed grade 3 mucositis: Ten
  patients who developed grade 4 mucositis: one
  patients who developed primary graft failure: None
[2]; standard dose melphalan, all patients
  donor chimerism at engraftment: > 95%
